This is an account of results in ChEMBL document CHEMBL1177745, “Isolation, characterization, and bioactivity of cyclotides from the Micronesian plant Psychotria leptothyrsa” (J Nat Prod, 2010).

The assay concerns U-937/GTB. The assay is described as follows: Cytotoxicity against human U937/GTB cells by fluorometric microculture cytotoxicity assay. The class given is functional, cell-based.

The compound `CC[C@H](C)[C@@H]1NC(=O)CNC(=O)[C@@H](CC(N)=O)NC(=O)[C@H](Cc2ccccc2)NC(=O)[C@H](Cc2ccc(O)cc2)NC(=O)[C@@H]2CSSC[C@@H]3NC(=O)CNC(=O)[C@H](CC(C)C)NC(=O)[C@H](Cc4ccccc4)NC(=O)[C@H](C(C)C)NC(=O)[C@H]4CSSC[C@H](NC(=O)[C@H](CO)NC(=O)[C@H](CSSC[C@H](NC(=O)[C@H](C)NC1=O)C(=O)NCC(=O)N[C@@H](CCC(=O)O)C(=O)N[C@@H](CO)C(=O)N4)NC(=O)CNC(=O)[C@@H]1CCCN1C(=O)[C@H]([C@@H](C)CC)NC(=O)[C@H](Cc1ccccc1)NC3=O)C(=O)N[C@@H](CCCCN)C(=O)N[C@@H](CO)C(=O)N[C@@H](CCCCN)C(=O)N[C@@H](C(C)C)C(=O)N2` [PSYLE A] yielded an IC50 of 26 µM. Compound `CC[C@@H](C)[C@@H]1NC(=O)[C@@H]2CSSC[C@@H]3NC(=O)[C@H](C(C)C)NC(=O)[C@H](CCCCN)NC(=O)[C@H](CC(N)=O)NC(=O)[C@@H](CCCCN)NC(=O)[C@@H]4CSSC[C@H](NC(=O)[C@H](CO)NC(=O)[C@H](CCC(=O)O)NC(=O)CNC(=O)[C@H](CSSC[C@H](NC(=O)CNC(=O)[C@H](CC(C)C)NC(=O)[C@H](C(C)C)NC(=O)[C@H](CO)NC(=O)[C@H](CO)NC1=O)C(=O)N[C@@H](CO)C(=O)N4)NC(=O)[C@@H]1CCCN1C(=O)[C@H]([C@H](C)CC)NC(=O)[C@H](C(C)C)NC(=O)CNC(=O)[C@H](CC(=O)O)NC(=O)[C@H](CCCNC(=N)N)NC(=O)[C@H](Cc1ccc(O)cc1)NC3=O)C(=O)N[C@@H](C(C)C)C(=O)N[C@@H](Cc1ccccc1)C(=O)N[C@@H]([C@@H](C)CC)C(=O)N1CCC[C@H]1C(=O)N2` had an IC50 of 3.5 µM.
